Measurements taken from ChEMBL document CHEMBL1201862, “PubChem BioAssay data set” (2004).
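All cell lines were grown in 96-well plates and treated with compound for 48 hours. The concentration for 50% growth inhibition is given as GI50.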 The source made the active and inactive calls. No stated cut-off is given here; in the data, active = GI50 up to about 1.1 µM and inactive = higher.

How the values were obtained:
Assay in all cases: inhibition of tumour cell growth, NCI panel, 48 h
MDA-N = test system: MDA-N
K562 = test system: K562
SK-MEL-5 = test system: SK-MEL-5
UACC-257 = test system: UACC-257
BT-549 = test system: BT-549
OVCAR-8 = test system: OVCAR-8
A549 = test system: A549
KM12 = test system: KM12
SN12C = test system: SN12C
OVCAR-3 = test system: OVCAR-3
SK-OV-3 = test system: SK-OV-3
SK-MEL-28 = test system: SK-MEL-28
NCI-H522 = test system: NCI-H522
NCI-H226 = test system: NCI-H226
RXF 393 = test system: RXF 393
UO-31 = test system: UO-31
U-251 = test system: U-251
HCC 2998 = test system: HCC 2998
A498 = test system: A498
HL-60 = test system: HL-60

Row | SMILES | GI50 (MDA-N) | GI50 (K562) | GI50 (SK-MEL-5) | GI50 (UACC-257) | GI50 (BT-549) | GI50 (OVCAR-8) | GI50 (A549) | GI50 (KM12) | GI50 (SN12C) | GI50 (OVCAR-3) | GI50 (SK-OV-3) | GI50 (SK-MEL-28) | GI50 (NCI-H522) | GI50 (NCI-H226) | GI50 (RXF 393) | GI50 (UO-31) | GI50 (U-251) | GI50 (HCC 2998) | GI50 (A498) | GI50 (HL-60)
1 | [N-]=[N+]=NC1=C(C(=O)c2ccccc2)C(=O)c2cccc3cccc1c23 | 64.3 µM (inactive) | 54.5 µM (inactive) | 44.2 µM (inactive) | 48.8 µM (inactive) | 44.8 µM (inactive) | 37 µM (inactive) | 45.2 µM (inactive) | 25.1 µM (inactive) | 63 µM (inactive) | 30.5 µM (inactive) | 26.6 µM (inactive) | 66.7 µM (inactive) | 23 µM (inactive) | 36.4 µM (inactive) | 22.4 µM (inactive) | 26.2 µM (inactive) | 21.2 µM (inactive) | – | – | –
2 | OC(C#Cc1ccccc1)(c1ccccc1)c1ccccc1 | 23.4 µM (inactive) | 34.3 µM (inactive) | 19 µM (inactive) | 24.5 µM (inactive) | 51.1 µM (inactive) | 63.5 µM (inactive) | 21.2 µM (inactive) | 28 µM (inactive) | 69.8 µM (inactive) | 26.7 µM (inactive) | > 100 µM (inactive) | 51.1 µM (inactive) | 30.9 µM (inactive) | 26.2 µM (inactive) | – | 40.8 µM (inactive) | 26.7 µM (inactive) | 50.6 µM (inactive) | 27.1 µM (inactive) | 38.6 µM (inactive)
3 | O=C1CSC(c2cccc(Cl)c2)N1c1ccc(-n2c(-c3ccccc3)nc3ccccc3c2=O)cc1 (configuration not stated) | > 100 µM (inactive) | 51.6 µM (inactive) | 47 µM (inactive) | > 100 µM (inactive) | 9.98 µM (inactive) | 79.8 µM (inactive) | > 100 µM (inactive) | 21.3 µM (inactive) | > 100 µM (inactive) | > 100 µM (inactive) | 88.7 µM (inactive) | > 100 µM (inactive) | 43.3 µM (inactive) | – | – | 3.22 µM (inactive) | 29 µM (inactive) | 43.7 µM (inactive) | 94.8 µM (inactive) | > 100 µM (inactive)
4 | O=C(Nc1ccccc1)c1cc(S(=O)(=O)Nc2n[nH]c(=O)[nH]2)c(SSc2cc(Cl)c(C(=O)Nc3ccccc3)cc2S(=O)(=O)Nc2n[nH]c(=O)[nH]2)cc1Cl | > 100 µM (inactive) | 55.5 µM (inactive) | > 100 µM (inactive) | > 100 µM (inactive) | > 100 µM (inactive) | > 100 µM (inactive) | > 100 µM (inactive) | > 100 µM (inactive) | > 100 µM (inactive) | > 100 µM (inactive) | > 100 µM (inactive) | > 100 µM (inactive) | > 100 µM (inactive) | > 100 µM (inactive) | – | > 100 µM (inactive) | > 100 µM (inactive) | > 100 µM (inactive) | > 100 µM (inactive) | > 100 µM (inactive)
5 | CC(C)(C)c1cc(COc2cc(COc3ccc(-c4c5c(nc6c4CCc4ccc(-c7c8ccccc8nc8ccccc78)cc4-6)-c4cc(-c6c7ccccc7nc7ccccc67)ccc4CC5)cc3)cc(OCc3cc(C(C)(C)C)cc(C(C)(C)C)c3)c2)cc(C(C)(C)C)c1 | > 100 µM (inactive) | > 100 µM (inactive) | > 100 µM (inactive) | > 100 µM (inactive) | > 100 µM (inactive) | – | > 100 µM (inactive) | > 100 µM (inactive) | > 100 µM (inactive) | > 100 µM (inactive) | > 100 µM (inactive) | > 100 µM (inactive) | > 100 µM (inactive) | > 100 µM (inactive) | – | > 100 µM (inactive) | > 100 µM (inactive) | 80.5 µM (inactive) | > 100 µM (inactive) | –
6 | COc1cc(-c2oc3c(OC)c(O)c(OC)c(O)c3c(=O)c2OC)ccc1O | 48.1 µM (inactive) | 58.6 µM (inactive) | 29.8 µM (inactive) | 60.5 µM (inactive) | 37.9 µM (inactive) | 68.5 µM (inactive) | 65.3 µM (inactive) | > 100 µM (inactive) | 59.8 µM (inactive) | 24.3 µM (inactive) | 17.9 µM (inactive) | 56.8 µM (inactive) | 29.1 µM (inactive) | 34.9 µM (inactive) | – | 31.6 µM (inactive) | 26.4 µM (inactive) | 45.3 µM (inactive) | 37.3 µM (inactive) | 33.5 µM (inactive)
7 | COc1cc(/C=N\NC(=O)C[N+](C)(C)C)cc(OC)c1OC | > 10 µM (inactive) | > 10 µM (inactive) | > 10 µM (inactive) | > 10 µM (inactive) | > 10 µM (inactive) | > 10 µM (inactive) | > 10 µM (inactive) | > 10 µM (inactive) | > 10 µM (inactive) | > 10 µM (inactive) | > 10 µM (inactive) | > 10 µM (inactive) | > 10 µM (inactive) | – | – | – | > 10 µM (inactive) | > 10 µM (inactive) | – | > 10 µM (inactive)
8 | COc1ccc(C2=NOC(N)(c3ccc(OC)cc3)C2)cc1 (configuration not stated) | > 100 µM (inactive) | > 100 µM (inactive) | 56.9 µM (inactive) | > 100 µM (inactive) | > 100 µM (inactive) | > 100 µM (inactive) | > 100 µM (inactive) | 30.8 µM (inactive) | > 100 µM (inactive) | > 100 µM (inactive) | > 100 µM (inactive) | > 100 µM (inactive) | > 100 µM (inactive) | > 100 µM (inactive) | – | > 100 µM (inactive) | > 100 µM (inactive) | > 100 µM (inactive) | 29 µM (inactive) | 38.2 µM (inactive)
9 | Cc1ccc(/N=N/C(=NNC(=O)c2ccc(C)cc2)c2ccc(N(C)C)cc2)cc1 | 19.8 µM (inactive) | 24.9 µM (inactive) | 15.5 µM (inactive) | 21.9 µM (inactive) | 26.2 µM (inactive) | 31.8 µM (inactive) | 28.6 µM (inactive) | 16.9 µM (inactive) | 23.2 µM (inactive) | 17.6 µM (inactive) | 23.7 µM (inactive) | 36 µM (inactive) | 20.9 µM (inactive) | 23.8 µM (inactive) | – | 26.1 µM (inactive) | 34.4 µM (inactive) | 27.4 µM (inactive) | – | 27.5 µM (inactive)
10 | COc1cc2c3cc1Oc1c(OC)c(OC)cc4c1C(Cc1ccc(O)c(c1)Oc1ccc(cc1)CC3N(C)CC2)N(C)CC4 (configuration not stated) | 21.7 µM (inactive) | 7.78 µM (inactive) | 20 µM (inactive) | 34.1 µM (inactive) | 23.1 µM (inactive) | 33.6 µM (inactive) | 26.3 µM (inactive) | 28.1 µM (inactive) | 19.1 µM (inactive) | – | 29.6 µM (inactive) | 64.4 µM (inactive) | 31.5 µM (inactive) | 49.9 µM (inactive) | – | 16.7 µM (inactive) | 21.4 µM (inactive) | 15.8 µM (inactive) | 23.7 µM (inactive) | 28.3 µM (inactive)
11 | O=C1c2c(O)cccc2Cc2cc(CO)cc(O)c21 | 2.74 µM (inactive) | 1.99 µM (inactive) | 1.69 µM (inactive) | 2.14 µM (inactive) | 2.01 µM (inactive) | 2.74 µM (inactive) | 2.92 µM (inactive) | – | 3.38 µM (inactive) | 1.66 µM (inactive) | 3.19 µM (inactive) | 3.96 µM (inactive) | – | 5.36 µM (inactive) | – | 1.89 µM (inactive) | 1.34 µM (inactive) | 2.66 µM (inactive) | 4.22 µM (inactive) | 0.684 µM (active)
